In assay [1] the target is T1, MOPC315 IgA Fab fragment, thiolated Fab labeled with bromoketone 4 (thiol tethered at tyrosine 34L) (Mus musculus, UniProt P01729+P01822).
T1 construct: Fab fragment, generated by treating the reduced and alkylated IgA with papain; made in house
The experiment in a line: Ester cleavage assay. Format: biochemical. As for the experimental part:
(§1) Cleavage of DNP coumarin esters 14 and 15 by the thiol-containing antibodies was assayed in the presence and absence of 0.1 μM NaCl, 50 mM sodium phosphate, pH 7.0, with 24 μM dithiothreitol at 10° C. The release of free coumarin was quantitated fluorometrically, exciting at 355 nm and measuring emission at 455 nm. The S-thiopyridyl Fab was first dialyzed against assay buffer, 30 min. prior to the assays, an aliquot of the thiopyridyl Fab (0.15 mg in 0.19 ml) was reduced with 3.8 mM dithiothreitol at 20° C. For each assay, reduced, thiolated Fab (15 μg in 18.8 μl) was diluted with assay buffer (2.95 ml) so that the net concentrations of thiolated Fab and of dithiothreitol were 0.1 μM and 24 μM, respectively. After equilibrating, the substrate was added (30 μl of a stock solution in acetonitrile) and the solution mixed for 10 sec. before monitoring fluorescence change. Antibody rates were corrected by subtracting the rate of cleavage in the absence of Fab.
(§2) The reaction kinetics are consistent with the formation of a Michaelis complex (FIG. 6). […] Neither the uncleaved affinity-labeled antibody nor the iodoacetamide-alkylated antibody accelerated the rate of the thiolysis reaction above the background rate. The stoichiometry of product release corresponded to 1.0 coumarin to 1.0 Fab-SH. […]

Assay [2] concerns the target T2, MOPC315 fluorescein-Fab adduct (S-thiopyridyl Fab labeled with 2, derivatized with N-fluoresceinthioureido-2-mercaptoethylamine) (Mus musculus, UniProt P01729+P01822).
T2 construct: Fab fragment, generated by treating the reduced and alkylated IgA with papain; made in house
As to the kind of experiment: Fluorescence quenching binding assay. To be noted: 0.10 μM adduct, 50 mM NaCl, 50 mM sodium phosphate, pH 7.0, 10° C.; read-out: association constant (converted). The procedure:
FIG. 7 illustrates the results of a fluorescence quenching binding assay for DNP-glycine with fluorescein-Fab adduct (.quadrature.) versus control with fluorescein plus underivatized Fab ( ). Fluorescence quenching experiments were carried at 10° C. using 492 nm for excitation and measuring emission at 521 nm. The fluorescein-Fab adduct was diluted with assay buffer (above) to 0.10 μM. Aliquots of 2,4-DNP-glycine were added and, after mixing, the fluorescence observed. Free N-fluoresceinthioureido-2-mercapthoethylamine and underivatized Fab, each at 0.10 μM, were treated in a similar experiment.
(§3) Fluorescence quenching experiments were carried out at 10° C. using 492 nm for excitation and measuring emission at 521 nm. The fluorescein-Fab adduct was diluted wi.:h assay buffer (50 mM NaCl. 50 mM sodium phosphate, pH 7.0) to 0.10 μM. Aliquots of 2,4-DNP-glycinewere added and, after mixing, the fluorescence observed. The association constant of DNP-glycine to the fluorescein-Fab adduct was determined to be 3.0×10^5 M^-1, almost identical to the KA of DNP-glycine to underivatized MOPC 315, 2.0×10^5 M^-1.

Assay [3] has as its target T3, MOPC315 IgA Fab fragment, thiolated Fab labeled with 2 (Fab-SH, thiol tethered at residue 52H of the heavy chain) (Mus musculus, UniProt P01729+P01822).
T3 construct: Fab fragment, generated by treating the reduced and alkylated IgA with papain; made in house
The experiment in a line: Ester cleavage (thiolysis) assay, fluorometric release of coumarin. Format: biochemical. As for the experimental part:
as §1, §2

In assay [4] the target is IgA MOPC315, underivatized. The experiment in a line: Association of DNP ligands with the underivatized antibody. In kind it is binding. To be noted: underivatized MOPC 315. The procedure: The following studies were carried out on the IgA MOPC315, which binds substituted 2,4-dinitrophenyl (DNP) ligands with association constants ranging from 5×10^4 to 10^6 M^-1 (Haselkorn et al. (1974) Biochemistry 13:2210). Although a three-dimensional structure is not available, the antibody combining site has been characterized by spectroscopic methods (UV, fluorometry, NMR), chemical modification, and amino acid sequencing of the variable region. Moreover, earlier affinity-labeling studies with reagents of varying structures (Givol and Wilcheck (1977) Meth. Enzy. 46:479; Givol et al. (1971) Biochemistry 10:3461; and Strausbauch et al. (1971) Biochemistry 10:4342) defined a number of reactive amino acid side chains in the vicinity of the combining site.
as §3

In the next assay the target is T4, MOPC315 IgA Fab fragment (Mus musculus, UniProt P01729+P01822+P01844+P01878).
T4 construct: Fab fragment, generated by treating the reduced and alkylated IgA with papain; made in house
The experiment in a line: Affinity labeling of Fab (incorporation of cleavable affinity labels). Format: binding. Particulars: for % Fab labeled (without DNP-glycine) / label incorporated: Fab 10 μM; for % Fab labeled (without DNP-glycine): 1.5 equivalents aldehyde plus NaCNBH3, pH 7.0, 37° C., 20 hours, or 1.3 equivalents α-bromoketone, pH 9.0, 37° C., 16 hours; for % Fab labeled (with DNP-glycine): as without, in the presence of 10 mM competitive inhibitor DNP-glycine; for label incorporated: 1.5 or 1.3 equivalents of label, 37° C.; for non-specific labeling: in the presence of 10 mM DNP-glycine. The procedure: The strategy for introducing a thiol into the binding site of MOPC315 is outlined in FIG. 3. These steps were carried out with the Fab fragment, generated by treating the reduced and alkylated IgA with papain followed by affinity chromatography on DNP-coupled Sepharose 4B (Goetzl (1970) Biochemistry 9:1267). The Fab fragment (at 10 μM) was treated with either 1.5 equivalents of aldehydes 1 or 2 for one hour followed by 7.5 equivalents of NaCNBH3, in 0.2M sodium phosphate; pH 7.0, at 37° C. for 20 hours, or with 1.3 equivalents of α-bromoketones 3, 4, or 5 in 0.1M sodium bicarbonate, pH 9.0; at 37° C. for 16 hours. In both cases, the labeled Fab was purified by chromatography on Sephadex G-50 in 0.1M sodium phosphate, pH 7.3, and, after lyophilization, subsequent affinity chromatography on DNP-coupled Sepharose 4B (Goetzl, supra.) to remove unlabeled or non-specifically labeled Fab. The extent of derivatization was quantitated spectrophotometrically (for labels 1 and 2, λmax =360 nm, , ε=12,800 M^-1 cm^-1) and additionally, for labels 1 and 2, by incorporation of tritium from NaCNB^3 H3 (using 12 mCi/millimole NaCNB^3 H3). […] In both cases, less than 10% non-specific labeling occurred in the presence of 10 mM of the competitive inhibitor DNP-glycine.

T4 sequence (P01822+P01878 fused): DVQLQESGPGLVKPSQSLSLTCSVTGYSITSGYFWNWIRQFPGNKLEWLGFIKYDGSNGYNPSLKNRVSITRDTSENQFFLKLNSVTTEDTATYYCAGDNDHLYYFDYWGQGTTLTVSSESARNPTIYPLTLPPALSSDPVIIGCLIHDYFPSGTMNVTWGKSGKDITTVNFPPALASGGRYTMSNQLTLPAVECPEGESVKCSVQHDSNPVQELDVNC
T4 sequence (P01729+P01844 fused): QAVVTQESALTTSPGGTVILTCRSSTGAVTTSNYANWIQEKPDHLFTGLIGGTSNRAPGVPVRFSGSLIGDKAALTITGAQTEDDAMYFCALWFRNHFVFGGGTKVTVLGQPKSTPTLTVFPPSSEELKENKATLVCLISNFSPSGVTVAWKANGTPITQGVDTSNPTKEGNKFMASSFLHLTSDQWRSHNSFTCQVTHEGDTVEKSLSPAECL
T3 sequence (P01822 19-137): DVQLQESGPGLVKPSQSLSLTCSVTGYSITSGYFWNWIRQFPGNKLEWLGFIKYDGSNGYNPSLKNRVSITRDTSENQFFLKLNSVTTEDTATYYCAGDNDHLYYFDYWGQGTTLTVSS
T3 sequence (P01729 20-129): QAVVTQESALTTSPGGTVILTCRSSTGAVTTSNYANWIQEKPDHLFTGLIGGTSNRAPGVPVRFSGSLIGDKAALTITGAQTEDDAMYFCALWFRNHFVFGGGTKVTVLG
T3 sequence (P01878 1-100 partner limits assumed): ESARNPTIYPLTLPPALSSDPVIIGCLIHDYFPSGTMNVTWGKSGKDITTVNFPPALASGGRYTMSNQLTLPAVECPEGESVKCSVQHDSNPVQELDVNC
T3 sequence (P01844 whole entry partner, the tested form may be a part): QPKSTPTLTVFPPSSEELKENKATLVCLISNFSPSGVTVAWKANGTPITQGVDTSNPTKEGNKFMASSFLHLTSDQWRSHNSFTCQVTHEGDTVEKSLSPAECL
T1 sequence (P01822 19-137): as the sequence (P01822 19-137) above
T1 sequence (P01729 20-129): as the sequence (P01729 20-129) above
T1 sequence (P01878 1-100 partner limits assumed): as the sequence (P01878 1-100 partner limits assumed) above
T1 sequence (P01844 whole entry partner, the tested form may be a part): as the sequence (P01844 whole entry partner, the tested form may be a part) above
T2 sequence (P01822 19-137): as the sequence (P01822 19-137) above
T2 sequence (P01729 20-129): as the sequence (P01729 20-129) above
T2 sequence (P01878 1-100 partner limits assumed): as the sequence (P01878 1-100 partner limits assumed) above
T2 sequence (P01844 whole entry partner, the tested form may be a part): as the sequence (P01844 whole entry partner, the tested form may be a part) above

In the case of `CC(=O)Oc1ccc([N+](=O)[O-])cc1[N+](=O)[O-]` [DNP-acetate], the “hydrolysis of ester by thiolated Fab” value in assay [1] is “did not hydrolyze”.
A word on the Ki: it is the equilibrium dissociation constant of an inhibitor or competing ligand from its target. Low values mean a stronger hold on the target, high ones a looser hold on the target. As to `O=C(O)CNc1ccc([N+](=O)[O-])cc1[N+](=O)[O-]` [DNP-glycine], the Kd in assay [2] is 3.33 µM. The compound also came in with a Ki in assay [3] of 8 µM. Further, the KA in assay [4] amounted to 200000 M⁻¹.
For the compound `O=CCCSSCCNc1ccc([N+](=O)[O-])cc1[N+](=O)[O-]` [compound 1, (N-2,4-Dinitrophenyl)-2-aminoethyl 3-oxopropyl disulfide], on MOPC315 IgA Fab fragment, the “% Fab labeled (without DNP-glycine)” value came to 22% and the “% Fab labeled (with DNP-glycine)” value was found to be 5%.
Turning to `O=CCCCSSCCNc1ccc([N+](=O)[O-])cc1[N+](=O)[O-]` [compound 2], on MOPC315 IgA Fab fragment, the label incorporated result is given as “over 90%”, the “% Fab labeled (without DNP-glycine)” value is 95%, the “% Fab labeled (with DNP-glycine)” value turned out to be 10% and the non-specific labeling entry is “less than 10%”.
For `O=C(CBr)CCSc1ccc([N+](=O)[O-])cc1[N+](=O)[O-]` [compound 3, 1-Bromo-2-oxo-4-(S-DNP)-mercaptobutane], on MOPC315 IgA Fab fragment, the “% Fab labeled (without DNP-glycine)” value is 0% and the “% Fab labeled (with DNP-glycine)” value worked out at 0%.
As to `O=C(CBr)CCCSc1ccc([N+](=O)[O-])cc1[N+](=O)[O-]` [compound 4, 1-Bromo-2-oxo-5-(S-DNP)-mercaptopentane], at MOPC315 IgA Fab fragment, the label incorporated entry is listed as “over 90%”, the “% Fab labeled (without DNP-glycine)” value was determined as 85%, the “% Fab labeled (with DNP-glycine)” value turned out to be 0% and the non-specific labeling result is on record as “less than 10%”.
In the case of `O=C(CBr)CCCCSc1ccc([N+](=O)[O-])cc1[N+](=O)[O-]` [compound 5, 1-Bromo-2=oxo-6-(S-DNP)-mercaptohexane], at MOPC315 IgA Fab fragment, the “% Fab labeled (without DNP-glycine)” value was 15% and the “% Fab labeled (with DNP-glycine)” value is on record as 0%.
In the case of `O=C(CCNc1ccc([N+](=O)[O-])cc1[N+](=O)[O-])Oc1ccc2ccc(=O)oc2c1` [ester 14, (N-DNP)-3-Aminopropanoic acid 7-hydroxycoumarin ester], the “acceleration of cleavage, factor over the cleavage reaction in equimolar dithiothreitol” value in assay [3] (pH 7.0, 10° C.) is reported as 6×10^4.
